According to PMC10509173, “Deep learning driven de novo drug design based on gastric proton pump structures” (Communications Biology, 2023):
“And” between values parts separate entries of the source, which are not always exact repeats. Identical values can stand only once.

Target: H+,K+-ATPase (Sus scrofa, UniProt P19156)
Assay: Dose-dependent inhibition of H+,K+-ATPase activity, membrane fractions
Conditions: for H+,K+-ATPase activity, raw data of dose-dependent inhibition: single replicate values
[1] = [PCAB] -3.30103 (log, unit not given)
[2] = [PCAB] -3.52288 (log, unit not given)
[3] = [PCAB] -4 (log, unit not given)
[4] = [PCAB] -4.30103 (log, unit not given)
[5] = [PCAB] -4.52288 (log, unit not given)
[6] = [PCAB] -5 (log, unit not given)
[7] = [PCAB] -5.52288 (log, unit not given)
[8] = [PCAB] -6 (log, unit not given)
[9] = [PCAB] -6.30103 (log, unit not given)
[10] = [PCAB] -7 (log, unit not given)
[11] = [PCAB] -8 (log, unit not given)
[12] = [PCAB] -11 (log, unit not given; possibly placeholder for no compound)

Chain of H+,K+-ATPase (P19156 2-1034 limits assumed): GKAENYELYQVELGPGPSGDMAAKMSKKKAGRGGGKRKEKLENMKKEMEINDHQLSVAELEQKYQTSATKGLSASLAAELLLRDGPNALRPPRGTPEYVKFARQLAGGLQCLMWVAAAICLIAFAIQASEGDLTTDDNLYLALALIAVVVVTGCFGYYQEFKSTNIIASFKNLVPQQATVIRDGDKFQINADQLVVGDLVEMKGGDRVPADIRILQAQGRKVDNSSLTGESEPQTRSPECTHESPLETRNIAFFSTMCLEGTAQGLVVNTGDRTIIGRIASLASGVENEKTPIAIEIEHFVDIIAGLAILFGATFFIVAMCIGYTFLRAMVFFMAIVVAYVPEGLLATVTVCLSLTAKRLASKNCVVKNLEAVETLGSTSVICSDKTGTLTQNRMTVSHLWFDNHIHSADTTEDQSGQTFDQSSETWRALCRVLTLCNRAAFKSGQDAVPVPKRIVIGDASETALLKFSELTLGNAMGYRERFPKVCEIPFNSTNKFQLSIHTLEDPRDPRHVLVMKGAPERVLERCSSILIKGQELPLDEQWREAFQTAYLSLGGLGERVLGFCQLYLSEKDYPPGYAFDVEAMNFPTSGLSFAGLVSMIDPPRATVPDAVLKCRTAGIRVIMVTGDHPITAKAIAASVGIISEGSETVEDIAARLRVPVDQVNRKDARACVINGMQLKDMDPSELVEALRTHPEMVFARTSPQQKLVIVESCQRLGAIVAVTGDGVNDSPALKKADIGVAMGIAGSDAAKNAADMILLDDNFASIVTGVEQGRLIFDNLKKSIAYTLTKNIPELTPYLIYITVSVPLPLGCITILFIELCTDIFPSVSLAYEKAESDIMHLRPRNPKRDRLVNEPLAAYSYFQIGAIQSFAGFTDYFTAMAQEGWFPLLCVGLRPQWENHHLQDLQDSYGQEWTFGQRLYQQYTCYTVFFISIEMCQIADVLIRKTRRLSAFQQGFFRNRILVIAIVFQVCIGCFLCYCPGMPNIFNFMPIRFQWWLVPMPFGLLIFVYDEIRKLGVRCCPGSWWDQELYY
Chain of H+,K+-ATPase (P18434 whole entry partner): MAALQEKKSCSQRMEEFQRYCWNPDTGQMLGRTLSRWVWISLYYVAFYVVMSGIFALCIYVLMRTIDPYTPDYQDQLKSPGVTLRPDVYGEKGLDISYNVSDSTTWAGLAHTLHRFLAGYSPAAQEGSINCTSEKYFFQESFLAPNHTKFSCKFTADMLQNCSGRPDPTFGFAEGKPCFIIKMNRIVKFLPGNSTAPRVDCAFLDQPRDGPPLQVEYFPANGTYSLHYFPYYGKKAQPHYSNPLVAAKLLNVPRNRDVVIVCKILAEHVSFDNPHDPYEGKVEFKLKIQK

Row | Compound | IC50 | H+,K+-ATPase activity, raw data of dose-dependent inhibition [1] | H+,K+-ATPase activity, raw data of dose-dependent inhibition [2] | H+,K+-ATPase activity, raw data of dose-dependent inhibition [3] | H+,K+-ATPase activity, raw data of dose-dependent inhibition [4] | H+,K+-ATPase activity, raw data of dose-dependent inhibition [5] | H+,K+-ATPase activity, raw data of dose-dependent inhibition [6] | H+,K+-ATPase activity, raw data of dose-dependent inhibition [7] | H+,K+-ATPase activity, raw data of dose-dependent inhibition [8] | H+,K+-ATPase activity, raw data of dose-dependent inhibition [9] | H+,K+-ATPase activity, raw data of dose-dependent inhibition [10] | H+,K+-ATPase activity, raw data of dose-dependent inhibition [11] | H+,K+-ATPase activity, raw data of dose-dependent inhibition [12]
1 | CNCC#CCn1ccc2cccc(C#Cc3ccccc3)c21 [DQ-14] | > 120 µM | 27.73 and 26.74 and 25.35 and 26.06 | 28.44 and 23.96 and 24.12 and 24.35 | 60.7 and 61.39 and 60.36 and 56.79 | 84.92 and 80.56 and 95.68 and 93.2 and 92.03 and 93.46 | 87.04 and 84.8 and 98.89 and 98.98 and 99.17 and 99.96 | 106.23 and 102.41 and 111.55 and 99.92 and 109.43 and 110.94 | 106.37 and 107.48 and 116.43 and 116.24 and 113.84 and 116.41 | 99.88 and 98.19 and 102.47 and 100.9 and 103.05 and 104.28 | 101.13 and 91.4 and 101.1 and 101.3 | 93.06 and 99.72 and 100.85 and 100.56 and 98.57 | 95.47 and 97.96 and 97.95 and 99.07 and 96.42 and 98.64 | 103.16 and 99.44 and 101.23 and 99.08 and 99.88 and 99.77
2 | CNCC#CCn1ccc2cccc(C#Cc3ccc(C)cc3)c21 [DQ-15] | 49.5 ± 4.9 µM | -1.23 and -0.26 and -1.44 and 5.07 and -1.8 and 2.8 | 9.09 and 3.72 and 0.29 and -0.76 and -0.99 and -0.84 | 11.93 and 13.25 and 13.98 and 12.44 and 11.99 | 53.33 and 67.11 and 32 and 29.38 and 36.06 and 36.79 | 62.91 and 87.02 and 102.29 and 102.11 and 98.15 and 100.59 | 104.78 and 109.76 and 109.66 and 114.82 and 111.02 and 110.28 | 106.28 and 113.44 and 111.13 and 112.65 and 113.7 and 115.05 | 99.17 and 105.14 and 103.4 and 101.49 and 105.23 and 103.02 | 96.59 and 101.3 and 102.53 and 104.37 and 103.52 and 105.02 | 93.78 and 100.85 and 99.97 and 100.06 and 104.3 and 100.32 | 98.75 and 101.8 and 99.85 and 100.74 and 97.88 and 98.55 | 102.57 and 105.77 and 99.66 and 98.21 and 98.11 and 102.51
3 | CNCC#CCn1ccc2cccc(C#Cc3cccc(Cl)c3)c21 [DQ-16] | 89.4 ± 13.5 µM | 24.42 and 42.17 | 44.41 and 66.92 | 87.71 and 67.55 | 103.26 and 71.7 and 101.95 and 107.11 and 107.49 and 103.62 | 107.4 and 104.96 and 100.44 and 100.8 and 99.65 and 99.6 | 105.07 and 103.28 and 102.18 and 95.06 and 104.24 and 100.65 | 112.46 and 113.5 and 115.83 and 115.26 and 112.62 and 114.01 | 106.69 and 106.05 and 103.52 and 103.99 and 105.16 and 107.1 | 101.16 and 99.6 and 102.96 and 104.58 and 100.87 and 100.34 | 95.95 and 99.26 and 100.97 and 100.31 and 101.14 and 100.94 | 95.83 and 94.95 and 90.34 and 101.71 and 99.53 and 101.3 | 95.82 and 93.84 and 98.4 and 100.56 and 99.28 and 103.27
4 | CNCc1ccc(OCc2c(Cl)cccc2OCc2ccccc2)cc1 [DQ-19] | 3.52 ± 0.22 µM | -0.65 and -0.09 and -0.18 (2×) and 0.39 and -0.03 | 1.38 and 2.32 and 2.04 and 1.91 and 2.46 and 2.13 | 10.36 and 10.46 and 8.18 and 7.73 and 7.75 and 7.91 | 16.41 and 15.72 and 6.63 and 6.46 and 5.99 and 5.93 | 18.62 (2×) and 17.28 and 17.05 and 16.78 and 16.42 | 27.04 and 27.03 and 26.28 and 26.11 and 26 and 25.46 | 56.8 and 57.52 and 52.1 and 50.99 and 52.47 and 50.98 | 77.41 and 78.78 and 71.45 and 74.76 and 72.12 and 73.47 | 84.8 and 85.13 and 83.98 and 84.02 and 82.9 and 83.28 | 91.5 and 92.21 and 96.4 and 96.06 and 98.84 and 94.11 | 95.21 and 97 and 100.13 and 98.68 and 100.43 and 97.42 | 95.94 and 97.66 and 99.42 and 99.81 and 100.11 and 99.03
5 | CNCc1ccc(OCc2ccccc2OCc2ccc(Cl)cc2)cc1 [DQ-21] | 0.28 ± 0.02 µM | -1.36 and -1 and -1.49 and 3.72 and -1.45 and 1.58 | 0.39 and 0.54 and 0.08 and 0.18 and 0.41 and 0.55 | 3.33 and 3.13 and 3.68 and 3.03 and 3.2 and 3.37 | 4.45 and 4.77 and 4.44 and 4.84 and 4.43 and 4.67 | 6.47 and 6.44 and 6.31 and 6.43 and 6.29 and 6.56 | 7.76 and 7.75 and 7.99 (2×) and 7.89 and 7.77 | 11.96 and 12.26 and 11.83 and 11.89 and 11.45 and 12.14 | 23.55 and 22.68 and 22.58 and 21.83 and 22.75 and 23.52 | 36.33 and 33.31 and 34.67 and 35.15 and 34.9 and 34.74 | 76.22 and 75.51 and 71.53 and 74.65 and 69.37 | 101.03 and 99.43 and 98.88 and 100.2 and 98.66 and 98.58 | 102.52 and 101.98 and 100.28 and 101.48 and 100.07 and 102.84
